{"source": "patent USRE48461E1", "about": "“Modulation of androgen receptor expression” (Ionis Pharmaceuticals, Inc., priority 2012, dated 2021)", "key": {"[1]": {"conditions": "cynomolgus monkey, in vivo; for Oligonucleotide concentration, Kidney / Oligonucleotide concentration, Liver: sc, 40 mg/kg", "procedure": "(§5) Prior to the study, the monkeys were kept in quarantine for a 30-day period, during which the animals were observed daily for general health. The monkeys were 2-4 years old and weighed between 2 and 4 kg. Thirteen groups of four randomly assigned male cynomolgus monkeys each were injected subcutaneously with ISIS oligonucleotide or PBS. PBS solution or ISIS oligonucleotides, at a dose of 40 mg/kg, were administered with a loading regimen consisting of four doses on the first week of the study (days 1, 3, 5, and 7), followed by a maintenance regimen consisting of once weekly administration starting on Day 14 (weeks 2 to 6). Subcutaneous injections were performed in clock-wise rotations at 4 sites on the back; one site per dose. The injection sites were delineated by tattoo, while sedated using ketamine, and were separated by a minimum of 3 cm.\nThe concentrations of the full-length oligonucleotide in the kidney and the liver of select treatment groups were measured. The method used is a modification of previously published methods (Leeds et al., 1996; Geary et al., 1999) which consist of a phenol-chloroform (liquid-liquid) extraction followed by a solid phase extraction."}, "[2]": {"conditions": "cynomolgus monkey, in vivo, sc, 40 mg/kg", "procedure": "as §5\nTo evaluate the effect of ISIS oligonucleotides on hepatic function, the monkeys were fasted overnight. Approximately, 1.5 mL of blood samples were collected on day 44 from all the study groups. Blood was collected in tubes without anticoagulant for serum separation. The tubes were kept at room temperature for a minimum of 90 min and then centrifuged at 3,000 rpm for 10 min. Levels of various liver function markers were measured using a Toshiba 120FR NEO chemistry analyzer (Toshiba Co., Japan)."}, "[3]": {"conditions": "cynomolgus monkey, in vivo, sc, 40 mg/kg", "remark": "listed apart in the source"}, "[4]": {"conditions": "cynomolgus monkey, in vivo, sc, 40 mg/kg", "remark": "listed apart in the source"}, "[5]": {"conditions": "cynomolgus monkey, in vivo, sc, 40 mg/kg", "remark": "listed apart in the source"}, "[6]": {"conditions": "cynomolgus monkey, in vivo, sc, 40 mg/kg", "remark": "listed apart in the source"}, "testosterone": {"test_system": "testosterone", "assay": "Serum testosterone levels in cynomolgus monkeys (ELISA)", "type": "in vivo", "conditions": "cynomolgus monkey, 40 mg/kg subcutaneously", "method": "Serum testosterone protein levels were measured in the plasma with an ELISA kit (Enzo Life Sciences), following the manufacturer's instructions."}, "[7]": {"conditions": "cynomolgus monkey, in vivo, sc, 40 mg/kg", "remark": "listed apart in the source", "procedure": "as §5\nKidney function was also assessed by urinalysis. Fresh urine from all animals was collected on day 44 using a clean cage pan on wet ice. Food was removed overnight the day before fresh urine collection was done but water was supplied. The total protein and creatinine levels were measured using a Toshiba 120FR NEO automated chemistry analyzer (Toshiba Co., Japan) and the protein to creatinine ratio was calculated."}, "CWR22-RV1 cells": {"test_system": "CWR22-RV1 cells", "assay": "CWR22-RV1 cell proliferation (CellTiter 96)", "type": "cell-based, human", "conditions": "RNAiMax, 6 days", "method": "(§1) CWR22-RV1 cells were plated and transfected using RNAiMax reagent (Life Technologies) with ISIS oligonucleotides at 1.7 nM, 5.0 nM, 16.7 nM, or 50 nM concentrations. ISIS 347526 was included as a negative control. After a treatment period of 6 days, the target reduction and proliferative capacity of the cancer cells was measured.\n(§2) Antisense inhibition of AR full-length mRNA was measured with the RTS3559 primer probe set. The results are presented in Table 63 as percent inhibition relative to non-treated cells. The reduction in V7 splice variant of the AR mRNA was also measured by RT-PCR using SYBR Green staining (Hu, R. et al., Cancer Res. 2009. 69: 16-22). The results are presented in Table 64, as percent reduction, relative to non-treated cells. Cell proliferation was measured with CellTiter 96® AQueous One Solution Cell Proliferation kit (Promega), following the manufacturer's instructions. Results are presented in Table 65 as percent inhibition of proliferation, relative to non-treated cells."}, "AR full-length mRNA": {"test_system": "AR full-length mRNA", "assay": "AR full-length mRNA in CWR22-RV1 cells (RNAiMax, RTS3559)", "type": "cell-based, human", "conditions": "6 days", "method": "as §1, §2"}, "AR-V7": {"test_system": "AR-V7", "assay": "Western blot of AR-V7 in MDV3100-resistant C4-2B cells", "type": "cell-based, human", "conditions": "C4-2B MR cells (Example 16)", "method": "(§3) ISIS 549372, ISIS 549434, and ISIS 554221 at 1 μM concentration of antisense oligonucleotide were each added to the culture media at 1 μM concentration for free uptake by the cells. After a treatment period of 2 days, cells were harvested in RIPA buffer containing protease inhibitors. The presence of bands for full-length AR, as well as the variant form, AR-V7, was detected by western blot using AR antibody (N-20, Santa Cruz).\n(§4) Western analysis of full-length AR, as well as the AR-V7 variant, was also conducted in a manner similar to the assay described above."}, "full-length AR": {"test_system": "full-length AR", "assay": "Western blot of full-length AR in MDV3100-resistant C4-2B cells", "type": "cell-based, human", "conditions": "C4-2B MR cells (Example 16)", "method": "as §3, §4"}, "[8]": {"test_system": "V7 splice variant of the AR mRNA", "assay": "AR V7 splice variant mRNA in CWR22-RV1 cells (RT-PCR SYBR Green)", "type": "cell-based, human", "conditions": "RNAiMax, 6 days", "method": "as §1, §2"}}, "note": "e = 2'-O-(2-methoxyethyl) (MOE); d = 2'-deoxy (DNA)", "data": [{"substance": "ISIS 584269: antisense compound targeted to human AR (CCTTATGGATGCTGCT; 3-10-3 (S)-cEt gapmer, further chemistry not given here)", "values": [{"measurement": "K/L ratio", "setting": "[1]", "result": 4.0}, {"measurement": "Oligonucleotide concentration, Kidney", "setting": "[1]", "result": 2823, "unit": "μg/g tissue"}, {"measurement": "Oligonucleotide concentration, Liver", "setting": "[1]", "result": 698, "unit": "μg/g tissue"}, {"measurement": "ALT", "setting": "[2]", "result": 75, "unit": "IU/L"}, {"measurement": "AST", "setting": "[2]", "result": 81, "unit": "IU/L"}, {"measurement": "Albumin", "setting": "[2]", "result": 4.0, "unit": "g/dL"}, {"measurement": "Plasma BUN", "setting": "[3]", "result": 21.8, "unit": "mg/dL"}, {"measurement": "Plasma Creatinine", "setting": "[3]", "result": 0.89, "unit": "mg/dL"}, {"measurement": "Body Wt", "setting": "[4]", "result": 2.5, "unit": "kg"}, {"measurement": "Heart weight", "setting": "[4]", "result": 8.7, "unit": "g"}, {"measurement": "Kidney weight", "setting": "[4]", "result": 13, "unit": "g"}, {"measurement": "Liver weight", "setting": "[4]", "result": 60, "unit": "g"}, {"measurement": "Mesenteric lymph nodes weight", "setting": "[4]", "result": 3.6, "unit": "g"}, {"measurement": "Spleen weight", "setting": "[4]", "result": 4.7, "unit": "g"}, {"measurement": "HCT", "setting": "[5]", "result": 41, "unit": "%"}, {"measurement": "Hemoglobin", "setting": "[5]", "result": 12.4, "unit": "g/dL"}, {"measurement": "Platelets", "setting": "[5]", "result": 522000, "unit": "µL"}, {"measurement": "RBC", "setting": "[5]", "result": "5.2e+06", "unit": "µL"}, {"measurement": "WBC", "setting": "[5]", "result": 9800, "unit": "µL"}, {"measurement": "C3 (% of baseline)", "setting": "[6]", "result": "102 % of baseline"}, {"measurement": "CRP", "setting": "[6]", "result": 4.9, "unit": "mg/dL"}, {"measurement": "Serum testosterone level", "setting": "testosterone", "result": 14.1, "unit": "ng/mL"}, {"measurement": "Urine protein/creatinine ratio", "setting": "[7]", "result": 0.00}]}, {"substance": "ISIS 584468: antisense compound targeted to human AR (CATTGTACTATGCCAG; 3-10-3 (S)-cEt gapmer, further chemistry not given here)", "values": [{"measurement": "K/L ratio", "setting": "[1]", "result": 5.2}, {"measurement": "Oligonucleotide concentration, Kidney", "setting": "[1]", "result": 2441, "unit": "μg/g tissue"}, {"measurement": "Oligonucleotide concentration, Liver", "setting": "[1]", "result": 474, "unit": "μg/g tissue"}, {"measurement": "ALT", "setting": "[2]", "result": 46, "unit": "IU/L"}, {"measurement": "AST", "setting": "[2]", "result": 52, "unit": "IU/L"}, {"measurement": "Albumin", "setting": "[2]", "result": 4.0, "unit": "g/dL"}, {"measurement": "Plasma BUN", "setting": "[3]", "result": 22.2, "unit": "mg/dL"}, {"measurement": "Plasma Creatinine", "setting": "[3]", "result": 0.78, "unit": "mg/dL"}, {"measurement": "Body Wt", "setting": "[4]", "result": 2.5, "unit": "kg"}, {"measurement": "Heart weight", "setting": "[4]", "result": 8.3, "unit": "g"}, {"measurement": "Kidney weight", "setting": "[4]", "result": 13, "unit": "g"}, {"measurement": "Liver weight", "setting": "[4]", "result": 60, "unit": "g"}, {"measurement": "Mesenteric lymph nodes weight", "setting": "[4]", "result": 3.8, "unit": "g"}, {"measurement": "Spleen weight", "setting": "[4]", "result": 4.1, "unit": "g"}, {"measurement": "HCT", "setting": "[5]", "result": 45, "unit": "%"}, {"measurement": "Hemoglobin", "setting": "[5]", "result": 13.5, "unit": "g/dL"}, {"measurement": "Platelets", "setting": "[5]", "result": 408000, "unit": "µL"}, {"measurement": "RBC", "setting": "[5]", "result": "5.9e+06", "unit": "µL"}, {"measurement": "WBC", "setting": "[5]", "result": 11100, "unit": "µL"}, {"measurement": "C3 (% of baseline)", "setting": "[6]", "result": "111 % of baseline"}, {"measurement": "CRP", "setting": "[6]", "result": 1.3, "unit": "mg/dL"}, {"measurement": "Serum testosterone level", "setting": "testosterone", "result": 13.6, "unit": "ng/mL"}, {"measurement": "Urine protein/creatinine ratio", "setting": "[7]", "result": 0.00}]}, {"substance": "TCTTATGTTTCCGAACCGTT (sugars from the 5' end e5 d10 e5, backbone and methylation of C not given here) [ISIS 347526, reference compound]", "values": [{"measurement": "Percent inhibition of cell proliferation", "setting": "CWR22-RV1 cells; dose 5.0 nM", "result": 0, "unit": "%"}, {"measurement": "Percent inhibition of cell proliferation", "setting": "CWR22-RV1 cells; dose 16.7 nM", "result": 0, "unit": "%"}, {"measurement": "Percent inhibition of cell proliferation", "setting": "CWR22-RV1 cells; dose 50.0 nM", "result": 0, "unit": "%"}, {"measurement": "Percent inhibition of AR full-length mRNA", "setting": "AR full-length mRNA; dose 5.0 nM", "result": 3, "unit": "%"}, {"measurement": "Percent inhibition of AR full-length mRNA", "setting": "AR full-length mRNA; dose 16.7 nM", "result": 4, "unit": "%"}, {"measurement": "Percent inhibition of AR full-length mRNA", "setting": "AR full-length mRNA; dose 50.0 nM", "result": 0, "unit": "%"}, {"measurement": "levels of AR-V7 (Western analysis)", "setting": "AR-V7", "result": "did not reduce protein levels"}, {"measurement": "levels of full-length AR (Western analysis)", "setting": "full-length AR", "result": "did not reduce protein levels"}, {"measurement": "Percent inhibition of AR splice variant, V7", "setting": "[8]; dose 5.0 nM", "result": 0, "unit": "%"}, {"measurement": "Percent inhibition of AR splice variant, V7", "setting": "[8]; dose 16.7 nM", "result": 0, "unit": "%"}, {"measurement": "Percent inhibition of AR splice variant, V7", "setting": "[8]; dose 50.0 nM", "result": 10, "unit": "%"}]}, {"substance": "TTGATTTAATGGTTGC [ISIS 579671] (cEt/MOE gapmer chemistry, further chemistry not given here)", "values": [{"measurement": "K/L ratio", "setting": "[1]", "result": 3.0}, {"measurement": "Oligonucleotide concentration, Kidney", "setting": "[1]", "result": 2576, "unit": "μg/g tissue"}, {"measurement": "Oligonucleotide concentration, Liver", "setting": "[1]", "result": 871, "unit": "μg/g tissue"}, {"measurement": "ALT", "setting": "[2]", "result": 56, "unit": "IU/L"}, {"measurement": "AST", "setting": "[2]", "result": 53, "unit": "IU/L"}, {"measurement": "Albumin", "setting": "[2]", "result": 4.0, "unit": "g/dL"}, {"measurement": "Plasma BUN", "setting": "[3]", "result": 22.7, "unit": "mg/dL"}, {"measurement": "Plasma Creatinine", "setting": "[3]", "result": 0.74, "unit": "mg/dL"}, {"measurement": "Body Wt", "setting": "[4]", "result": 2.4, "unit": "kg"}, {"measurement": "Heart weight", "setting": "[4]", "result": 8.8, "unit": "g"}, {"measurement": "Kidney weight", "setting": "[4]", "result": 14, "unit": "g"}, {"measurement": "Liver weight", "setting": "[4]", "result": 62, "unit": "g"}, {"measurement": "Mesenteric lymph nodes weight", "setting": "[4]", "result": 2.5, "unit": "g"}, {"measurement": "Spleen weight", "setting": "[4]", "result": 3.2, "unit": "g"}, {"measurement": "HCT", "setting": "[5]", "result": 42, "unit": "%"}, {"measurement": "Hemoglobin", "setting": "[5]", "result": 12.5, "unit": "g/dL"}, {"measurement": "Platelets", "setting": "[5]", "result": 438000, "unit": "µL"}, {"measurement": "RBC", "setting": "[5]", "result": "5.4e+06", "unit": "µL"}, {"measurement": "WBC", "setting": "[5]", "result": 10000, "unit": "µL"}, {"measurement": "C3 (% of baseline)", "setting": "[6]", "result": "101 % of baseline"}, {"measurement": "CRP", "setting": "[6]", "result": 4.5, "unit": "mg/dL"}, {"measurement": "Serum testosterone level", "setting": "testosterone; 40 mg/kg", "result": 7.3, "unit": "ng/mL"}, {"measurement": "Urine protein/creatinine ratio", "setting": "[7]", "result": 0.00}]}]}
